Read-outs that look alike come from different tables or passages of the source.
Experiments:
[1] = β-sheet content by ATR-FT-IR; type: physicochemical; conditions: Fig. S7 panel A; β-sheet content by ATR-FT-IR
In short: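 1 mg/mL PNF solutions lyophilized and powders measured by diamond ATR FT-IR (2 cm^-1 resolution, 64 scans); β-sheet content calculated per a prior method. For CR, PNF solution centrifuged through 3 kDa MWCO filter (16200 x g, 4 °C, 45 min); filtrate and unfiltered sample lyophilized, dissolved in DMSO, reacted with fluorescamine.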

[2] = Turbidity, derived count rate of scattered light; type: physicochemical; conditions: for Count Rate: derived count rate of scattered light (turbidity); for Log10 Count Rate: turbidity, derived count rate of scattered light, data of Figure 2D
[3] = type: physicochemical; conditions: for ThT Cat. / ThT-Fluorescence (categorical): ThT-active if fluorescence at least twice the control
In short: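 Fibrils (1 mg/mL solution) were mixed with 50 µM ThT in PBS for 15 min at RT, and fluorescence was read at λex 440/λem 488 nm against a PBS blank, as a triplicate mean ± SD. Zeta potential came from electrophoretic mobility (Smoluchowski) after 1 d aggregation at 1 mg/mL in PBS pH 7.4, diluted into 1 mM KCl.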

[4] = ThT fluorescence category, 1 if Rel. ThT >2

Row | Substance | b -sheet / % [1] [%] | Count Rate [2] | Log10 Count Rate [2] | Tht category (> 2 to blank = +) ([3]; Fig S10 panel D) | ThT Cat, ([3]; ThT category, 1 if Rel. ThT >2) | ThT Cat. [3, 4] | ThT Cat. / ThT-Fluorescence (categorical) [3] | ThT Cat. ([3]; Fig S10 panel E) | Tht category (> 2 to blank = +) ([3]; FigS12 panel A) | ThT Cat, ([3]; FigS12 panel B) | ThT Cat. ([3]; ThT category, 1 if Rel. ThT >2)
1 | KIKIQIN | 41.82 | 43.43 | 1.638 | 0 (ThT-inactive (N-Fold <2)) | 0 (ThT-inactive (N-Fold <2)) | 0 (ThT-inactive (N-Fold <2)) | 0 (ThT-inactive (N-Fold <2)) | – | – | – | –
2 | KAKAQA | 40.34 | 20.93 | 1.321 | 0 (ThT-inactive (N-Fold <2)) | 0 (ThT-inactive (N-Fold <2)) | 0 (ThT-inactive (N-Fold <2)) | 0 (ThT-inactive (N-Fold <2)) | 0 (ThT-inactive (N-Fold <2)) | 0 (ThT-inactive (N-Fold <2)) | 0 (ThT-inactive (N-Fold <2)) | –
3 | KIKQIINM | 44 | 2481 | 3.395 | 0 (ThT-inactive (N-Fold <2)) | 0 (ThT-inactive (N-Fold <2)) | 0 (ThT-inactive (N-Fold <2)) | 0 (ThT-inactive (N-Fold <2)) | 0 (ThT-inactive (N-Fold <2)) | – | – | –
4 | MDQMDQMDQMDQMDQ | 46.09 | 9.6 | 0.9823 | 0 (ThT-inactive (N-Fold <2)) | 0 (ThT-inactive (N-Fold <2)) | – | 0 (ThT-inactive (N-Fold <2)) | 0 (ThT-inactive (N-Fold <2)) | 0 (ThT-inactive (N-Fold <2)) | 0 (ThT-inactive (N-Fold <2)) | 0 (ThT-inactive (N-Fold <2))
5 | KFKQFFNMWQ | 32.75 | 236.9 | 2.375 | 0 (ThT-inactive (N-Fold <2)) | 0 (ThT-inactive (N-Fold <2)) | – | 0 (ThT-inactive (N-Fold <2)) | – | 0 (ThT-inactive (N-Fold <2)) | 0 (ThT-inactive (N-Fold <2)) | 0 (ThT-inactive (N-Fold <2))
6 | FKFDKFKFDK | 46.64 | 45.13 | 1.6545 | 0 (ThT-inactive (N-Fold <2)) | 0 (ThT-inactive (N-Fold <2)) | – | 0 (ThT-inactive (N-Fold <2)) | – | 0 (ThT-inactive (N-Fold <2)) | 0 (ThT-inactive (N-Fold <2)) | 0 (ThT-inactive (N-Fold <2))
7 | CETMYDKILKNLSRSR | 62.1014 | 1099 | 3.041 | 0 (ThT-inactive (N-Fold <2)) | 0 (ThT-inactive (N-Fold <2)) | – | 0 (ThT-inactive (N-Fold <2)) | 0 (ThT-inactive (N-Fold <2)) | 0 (ThT-inactive (N-Fold <2)) | 0 (ThT-inactive (N-Fold <2)) | 0 (ThT-inactive (N-Fold <2))
8 | CKFKFQFNMWQ | 47.05 | 142.5 | 2.154 | 1 (ThT. Cat is 1, if Rel. ThT >2) | 1 (ThT. Cat is 1, if Rel. ThT >2) | – | 1 (ThT. Cat is 1, if Rel. ThT >2) | 1 (ThT. Cat is 1, if Rel. ThT >2) | – | – | 1 (ThT. Cat is 1, if Rel. ThT >2)
9 | QCKFKFQF | 40.03 | 2669 | 3.426 | 1 (ThT. Cat is 1, if Rel. ThT >2) | 1 (ThT. Cat is 1, if Rel. ThT >2) | – | 1 (ThT. Cat is 1, if Rel. ThT >2) | – | – | – | 1 (ThT. Cat is 1, if Rel. ThT >2)
10 | CHLHLQL | 49.52 | 1155 | 3.062 | 1 (ThT. Cat is 1, if Rel. ThT >2) | 1 (ThT. Cat is 1, if Rel. ThT >2) | – | 1 (ThT. Cat is 1, if Rel. ThT >2) | 1 (ThT. Cat is 1, if Rel. ThT >2) | 1 (ThT. Cat is 1, if Rel. ThT >2) | 1 (ThT. Cat is 1, if Rel. ThT >2) | 1 (ThT. Cat is 1, if Rel. ThT >2)
11 | KVKGVGK | 8.763 | 51.17 | 1.709 | 0 (ThT-inactive (N-Fold <2)) | 0 (ThT-inactive (N-Fold <2)) | – | 0 (ThT-inactive (N-Fold <2)) | – | 0 (ThT-inactive (N-Fold <2)) | 0 (ThT-inactive (N-Fold <2)) | 0 (ThT-inactive (N-Fold <2))
12 | HLHLPLL | 49.19 | 200 | 2.301 | 0 (ThT-inactive (N-Fold <2)) | 0 (ThT-inactive (N-Fold <2)) | – | 0 (ThT-inactive (N-Fold <2)) | 0 (ThT-inactive (N-Fold <2)) | 0 (ThT-inactive (N-Fold <2)) | 0 (ThT-inactive (N-Fold <2)) | 0 (ThT-inactive (N-Fold <2))
13 | NMWQKFKFQF | 33.22 | 14045.43333 | 4.148 | 0 (ThT-inactive (N-Fold <2)) | 0 (ThT-inactive (N-Fold <2)) | – | 0 (ThT-inactive (N-Fold <2)) | – | – | – | 0 (ThT-inactive (N-Fold <2))
14 | RLRLTLC | 20.6858 | 125.6 | 2.0991 | 0 (ThT-inactive (N-Fold <2)) | 0 (ThT-inactive (N-Fold <2)) | – | 0 (ThT-inactive (N-Fold <2)) | 0 (ThT-inactive (N-Fold <2)) | 0 (ThT-inactive (N-Fold <2)) | 0 (ThT-inactive (N-Fold <2)) | 0 (ThT-inactive (N-Fold <2))
15 | QCKIKQIINM | 38.44 | 20551.06667 | 4.313 | 1 (ThT. Cat is 1, if Rel. ThT >2) | 1 (ThT. Cat is 1, if Rel. ThT >2) | – | 1 (ThT. Cat is 1, if Rel. ThT >2) | – | – | – | 1 (ThT. Cat is 1, if Rel. ThT >2)
16 | HIHIQIC | 48.25 | 260.6 | 2.416 | 1 (ThT. Cat is 1, if Rel. ThT >2) | 1 (ThT. Cat is 1, if Rel. ThT >2) | – | 1 (ThT. Cat is 1, if Rel. ThT >2) | 1 (ThT. Cat is 1, if Rel. ThT >2) | – | – | 1 (ThT. Cat is 1, if Rel. ThT >2)
17 | KIKQIIN | 37.69 | 64.03 | 1.806 | 0 (ThT-inactive (N-Fold <2)) | 0 (ThT-inactive (N-Fold <2)) | 0 (ThT-inactive (N-Fold <2)) | 0 (ThT-inactive (N-Fold <2)) | – | 0 (ThT-inactive (N-Fold <2)) | 0 (ThT-inactive (N-Fold <2)) | –

Source: publication PMC10447463, “Data-mining unveils structure–property–activity correlation of viral infectivity enhancing self-assembling peptides” (Nature Communications, 2023)
